According to US7754896B2, “Indol-alanine derivatives as selective S1P4-agonists” (Novartis AG, priority 2004, dated 2010):

Tests used:
Type in all cases: cell-based
S1P1 = target: T1, S1P1 (Homo sapiens, UniProt P21453); assay: Calcium mobilization assay, CHO cells expressing S1P1
T1 construct: expressed in transfected cells
From the text: (§1) Human S1P1 (GenBank™ accession number M31210) and S1P3 (GenBank™ accession number X83864) cDNA containing the myc sequence in front to the human S1P1 and S1P3 sequences are inserted in the pcDNA 3.1 vector. The vectors are sequenced to completion to confirm the correctness of the construct. The human S1P2 (GI: 4090955, TREMBL: 0195136) is cloned by a PCR based method. Lung cDNA (marathon cDNA) is obtained (BD Biosciences Chontech, Palo Alto, Calif. 94303, USA). […] The amplified product of around 1100 bp is analyzed by standard agarose gel-electrophoresis. […]
(§2) CHO cells are plated in black Costar plate (96 or 384 well, 50,000 cells or 12,500 cells, respectively) in a MEM with FCS and cultured for 20-24 h at 37° C. in a CO2 incubator. […] After measuring the baseline for 40 sec, the agonist in HBSS is added and the fluorescence is measured at intervals of 2 sec for 3 to 5 min. […]
(§3) The compounds mentioned in this application are tested for specificity, e.g. the activity they have in the parental cell line prior transformation with the S1P4 cDNA and for selectivity on CHO cells lines transformed with the S1P1, S1P2, S1P3, and S1P5. […] For example, S1P4 specific and selective compounds may have an EC50 (apparent EC50) measured at S1P4 that is 10×, preferably 100× lower that that measured in wild type CHO cells or In cell expressing any of the other four S1P receptors.

S1P2 = target: T2, S1P2 (Homo sapiens, UniProt O95136); assay: Calcium mobilization assay, CHO cells expressing S1P2
T2 construct: expressed in transfected cells
T2 sequence (O95136 whole entry): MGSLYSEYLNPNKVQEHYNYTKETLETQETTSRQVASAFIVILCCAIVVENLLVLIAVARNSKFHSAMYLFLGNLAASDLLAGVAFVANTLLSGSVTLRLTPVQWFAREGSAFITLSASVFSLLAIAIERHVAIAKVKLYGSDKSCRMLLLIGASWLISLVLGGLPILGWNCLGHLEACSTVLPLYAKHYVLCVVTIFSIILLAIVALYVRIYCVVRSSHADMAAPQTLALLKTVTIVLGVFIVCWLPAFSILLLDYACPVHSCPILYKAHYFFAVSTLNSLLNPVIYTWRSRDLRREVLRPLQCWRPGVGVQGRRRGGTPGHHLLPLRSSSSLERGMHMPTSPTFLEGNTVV
From the text: as §1, §2, §3

S1P5 = target: T3, S1P5 (Homo sapiens, UniProt Q9H228); assay: Calcium mobilization assay, CHO cells expressing S1P5
T3 construct: expressed in transfected cells
T3 sequence (Q9H228 whole entry): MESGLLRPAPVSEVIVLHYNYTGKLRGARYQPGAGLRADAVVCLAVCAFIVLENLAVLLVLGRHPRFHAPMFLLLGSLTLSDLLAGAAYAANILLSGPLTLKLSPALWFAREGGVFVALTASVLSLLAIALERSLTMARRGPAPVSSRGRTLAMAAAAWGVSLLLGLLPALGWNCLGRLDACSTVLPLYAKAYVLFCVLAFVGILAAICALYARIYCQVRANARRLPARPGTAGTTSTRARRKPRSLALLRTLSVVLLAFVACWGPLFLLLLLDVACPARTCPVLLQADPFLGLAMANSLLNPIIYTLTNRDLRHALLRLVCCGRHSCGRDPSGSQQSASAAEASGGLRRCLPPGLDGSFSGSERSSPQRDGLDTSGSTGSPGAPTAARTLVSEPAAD
From the text: The human S1P5 (GI: 30171332 or GenBank™ accession number AY262689, TREMBL: Q9H228) is cloned by a PCR based method. Lung and spleen cDNA (marathon cDNA) is obtained from BD Biosciences Chlontech (BD Biosciences Chlontech, Palo Alto, Calif. 94303, USA); genomic DNA is isolated from HeLa cells using standard procedures. Following oligonucleotides are used for the PCR reaction: forward primer CACCATGGAGTCGGGGCTGCTGCG (−4 to 20, GenBank™ accession number AY262689) and reverse primer 5′-TCAGTCTGCAGCCGGTTCTGATACCAGAGTC (1197 to 1131, AY262689), the initiation of the translation (ATG) and the stop codon are underlined. […] The amplified product of around 1100 bp is analyzed by standard agarose gel-electrophoresis. […]
as §2

T1 sequence (P21453 whole entry): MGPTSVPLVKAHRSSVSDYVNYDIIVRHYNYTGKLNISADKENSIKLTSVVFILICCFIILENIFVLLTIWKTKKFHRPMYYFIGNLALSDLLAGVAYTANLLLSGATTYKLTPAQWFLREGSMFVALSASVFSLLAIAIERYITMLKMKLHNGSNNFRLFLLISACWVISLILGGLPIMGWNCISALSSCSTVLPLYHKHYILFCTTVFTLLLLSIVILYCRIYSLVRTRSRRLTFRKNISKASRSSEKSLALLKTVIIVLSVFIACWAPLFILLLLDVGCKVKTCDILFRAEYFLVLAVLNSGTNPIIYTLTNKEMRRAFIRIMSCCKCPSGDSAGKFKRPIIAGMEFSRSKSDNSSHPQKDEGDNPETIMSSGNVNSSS

`NC(CNC(=O)c1cc2c(-c3ccccc3Cc3ccccc3)cccc2[nH]1)C(=O)O` (stereo not drawn) [Example 2] was tested, and the EC50 (S1P1) was > 6 µM, the EC50 (S1P2) was > 6 µM and the EC50 (S1P5) was 2.4 µM.
